Laboratory results: ChEMBL document CHEMBL1154702, “Enhancement of the antimalarial activity of ciprofloxacin using a double prodrug/bioorganometallic approach” (J Med Chem, 2009)

Tests used:
Plasmodium falciparum [1] = experiment: Antimalarial activity against chloroquine-sensitive Plasmodium falciparum 3D7 infected in erythrocytes after 48 hrs by [3H]hypoxanthine incorporation assay; type: functional, organism-based
Plasmodium falciparum [2] = experiment: Antimalarial activity against chloroquine-resistant Plasmodium falciparum W2 infected in erythrocytes after 48 hrs by [3H]hypoxanthine incorporation assay; type: functional, organism-based
Plasmodium falciparum [3] = experiment: Antimalarial activity against chloroquine-sensitive Plasmodium falciparum 3D7 infected in erythrocytes after 96 hrs by [3H]hypoxanthine incorporation assay; type: functional, organism-based
Plasmodium falciparum [4] = experiment: Antimalarial activity against chloroquine-resistant Plasmodium falciparum W2 infected in erythrocytes after 96 hrs by [3H]hypoxanthine incorporation assay; type: functional, organism-based
Plasmodium falciparum [5] = experiment: Antimalarial activity against chloroquine-sensitive Plasmodium falciparum PA infected in erythrocytes after 48 hrs by [3H]hypoxanthine incorporation assay; type: functional, organism-based
Plasmodium falciparum [6] = experiment: Antimalarial activity against […] Plasmodium falciparum IMT K2 infected in erythrocytes after 48 hrs by [3H]hypoxanthine incorporation assay; type: functional, organism-based
[7] = Cytotoxicity against concanavalin-stimulated BALB/c mouse splenocytes after 72 hrs by resazurin dye reduction method; type: cell-based; details: Splenocyte
Plasmodium falciparum [8] = experiment: Antimalarial activity against Plasmodium falciparum 3D7; type: functional, organism-based
Plasmodium falciparum [9] = experiment: Antimalarial activity against Plasmodium falciparum NF54; type: functional, organism-based
[10] = Therapeutic index, ratio of IC50 for concanavalin-stimulated BALB/c mice (Mus musculus) splenocytes to IC50 for Plasmodium falciparum 3D7; details: read-out: Ratio IC50
[11] = Therapeutic index, ratio of IC50 for concanavalin-stimulated BALB/c mice (Mus musculus) splenocytes to IC50 for Plasmodium falciparum W2 after 48 hrs; details: read-out: Ratio IC50
Plasmodium falciparum [12] = experiment: Antimalarial activity against chloroquine-sensitive Plasmodium falciparum IMTVo1 infected in erythrocytes after 48 hrs by [3H]hypoxanthine incorporation assay; type: functional, organism-based
Plasmodium falciparum [13] = experiment: Antimalarial activity against chloroquine-sensitive Plasmodium falciparum IMT10500 infected in erythrocytes after 48 hrs by [3H]hypoxanthine incorporation assay; type: functional, organism-based
Plasmodium falciparum [14] = experiment: Antimalarial activity against chloroquine-sensitive Plasmodium falciparum IMTL1 infected in erythrocytes after 48 hrs by [3H]hypoxanthine incorporation assay; type: functional, organism-based
Plasmodium falciparum [15] = experiment: Antimalarial activity against chloroquine-sensitive Plasmodium falciparum FCR3 infected in erythrocytes after 48 hrs by [3H]hypoxanthine incorporation assay; type: functional, cell-based; details: FCR-3/Gambia
Plasmodium falciparum [16] = experiment: Antimalarial activity against chloroquine-sensitive Plasmodium falciparum FCM29 infected in erythrocytes after 48 hrs by [3H]hypoxanthine incorporation assay; type: functional, organism-based

Row | SMILES | IC50 (Plasmodium falciparum [1]) [µM] | IC50 (Plasmodium falciparum [2]) [µM] | IC50 (Plasmodium falciparum [3]) [µM] | IC50 (Plasmodium falciparum [4]) [µM] | IC50 (Plasmodium falciparum [5]) [µM] | IC50 (Plasmodium falciparum [6]) [µM] | IC50 [7] [µM] | IC50 (Plasmodium falciparum [8]) [µM] | IC50 (Plasmodium falciparum [9]) [µM] | IC50 (Plasmodium falciparum [14]) [µM] | IC50 (Plasmodium falciparum [16]) [µM] | also measured
1 | C[C@H]1[C@H](OC(=O)CCC(=O)O)O[C@@H]2O[C@@]3(C)CC[C@H]4[C@H](C)CC[C@@H]1[C@@]24OO3 [ARTESUNATE] | 1.7 | 2.4 | 2 | 2.1 | 0.002 | 0.0018 |  |  |  |  |  | 
2 | CCN(CC)CCCC(C)Nc1ccnc2cc(Cl)ccc12 (stereo unspecified) [CHLOROQUINE] |  |  |  |  |  |  | 3.46 |  |  |  |  | 
3 | CCOC(=O)c1cn(C2CC2)c2cc(N3CCNCC3)c(F)cc2c1=O [CIPROFLOXACIN ETHYL ESTER] | 3.1 | 3.9 | 1.6 | 3.1 |  |  | > 40 | ≥ 10 | ≥ 10 |  |  | selectivity ratio [10]: > 12.9; selectivity ratio at 48 h [11]: > 10.2
4 | O=C(O)c1cn(C2CC2)c2cc(N3CCNCC3)c(F)cc2c1=O [CIPROFLOXACIN] | 45.9 | 119 | 10.1 | 14.1 | 45.5 | 80.8 | > 40 |  |  | 41.3 | 45.6 | selectivity ratio [10]: > 0.8; selectivity ratio at 48 h [11]: > 0.3; IC50 (Plasmodium falciparum [12]): 51.6 µM; IC50 (Plasmodium falciparum [13]): 74.8 µM; IC50 (Plasmodium falciparum [15]): 74.3 µM
5 | C[C@H]1c2cccc(O)c2C(=O)C2=C(O)[C@]3(O)C(=O)C(C(N)=O)=C(O)[C@@H](N(C)C)[C@@H]3[C@@H](O)[C@@H]21 [DOXYCYCLINE] | 12 | 10.7 | 1.7 | 1.2 | 12.9 | 14.9 |  |  |  | 8.4 | 11.1 | IC50 (Plasmodium falciparum [12]; read-out: IC50): 9.1 µM; IC50 (Plasmodium falciparum [13]; read-out: IC50): 13.3 µM; IC50 (Plasmodium falciparum [15]; read-out: IC50): 9.7 µM
6 | COc1c(N2CCNC(C)C2)c(F)cc2c(=O)c(C(=O)O)cn(C3CC3)c12 (stereo unspecified) [GATIFLOXACIN] |  |  |  |  |  |  |  | ≥ 10 | ≥ 10 |  |  | 
7 | Cc1c(F)c(N2CCNC(C)C2)cc2c1c(=O)c(C(=O)O)cn2C1CC1 (stereo unspecified) [GREPAFLOXACIN] |  |  |  |  |  |  |  | ≥ 10 | ≥ 10 |  |  | 
8 | COc1c(N2C[C@@H]3CCCN[C@@H]3C2)c(F)cc2c(=O)c(C(=O)O)cn(C3CC3)c12 [MOXIFLOXACIN] |  |  |  |  |  |  |  | ≥ 10 | ≥ 10 |  |  | 
9 | C=C[C@H]1CN2CC[C@H]1C[C@H]2[C@H](O)c1ccnc2ccc(OC)cc12 [QUININE] | 186 | 520 |  | 456 | 0.571 | 0.0067 |  |  |  | 0.543 | 0.0058 | IC50 (Plasmodium falciparum [12]; read-out: IC50): 0.428 µM; IC50 (Plasmodium falciparum [15]; read-out: IC50): 0.65 µM
